The values that follow come from patent US7129073B2, “Regulation of neuronal function through metabotropic glutamate receptor signaling pathways” (The Rockefeller University, priority 2001, dated 2006).

For test [1], the system named is Ser137 of DARPP-32 (CK1 site). Kind of test: DARPP-32 phospho-Ser137 immunoblot in neostriatal slices. It is filed as cell-based, mouse. On the procedure: (§1) Neostriatal slices were prepared from male C57/BL6 mice (6–8 weeks old) in accordance with methods known in the art (Nishi, A. et al. 1997, J. Neurosci. 17:8147–8155). Slices were treated with a drug. After drug treatment, slices were immediately frozen in liquid nitrogen, and stored at −80° C. until assayed.
Frozen slices were sonicated in hot homogenization buffer containing 1% SDS and 50 mM NaF, and samples were boiled for 10 minutes. SDS-PAGE sample buffer was then added and samples were boiled for 5 minutes. Samples (approximately 120 μg of total protein) were separated by SDS-PAGE (10% polyacrylamide) and then transferred to nitrocellulose. In most studies, immunoblots were first probed with anti-phospho-Ser137 DARPP-32 antibody. The blots were then stripped and probed with anti-phospho-Thr75 DARPP-32 antibody. Blots were stripped again and probed with anti-total DARPP-32 antibody. […] Chemiluminescence was detected by autoradiography and bands were quantified by analysis of scanned images using NIH IMAGE 1.52 software. Data were statistically analyzed by Student's t test in Microsoft EXCEL™ software as indicated.
Neostriatal slices were prepared from male C57/BL6 mice (6–8 weeks old) as disclosed (22). Slices were treated with drugs as specified in the text and figure legends. After drug treatment, slices were immediately frozen in liquid nitrogen, and stored at −80° C. until assayed.
Frozen slices were sonicated in hot homogenization buffer containing 1% SDS and 50 mM NaF, and samples were boiled for 10 min. SDS-PAGE sample buffer was then added and samples were boiled for 5 min. Samples (approximately 120 μg protein) were separated by SDS-PAGE (10% polyacrylamide) and transferred to nitrocellulose. Immunoblots were first probed with antiphospho-Ser-137 DARPP-32 antibody. The blots were stripped and probed with anti-phosphoThr-75 DARPP-32 antibody. Blots were stripped again and probed with anti-total DARPP-32 antibody. Antibody binding was detected by enhanced chemiluminescence (ECL) using X-ray film, and images were analyzed by laser scanning densitometry using NIH Image 1.52 software. Data were statistically analyzed by Student's t-test using Microsoft EXCEL™ software as indicated.
For orientation: A western blot detects proteins with antibodies after separation by electrophoresis.

In a further test the test system is Cdk5. The experiment in a line: Cdk5 kinase activity immunoprecipitated from neostriatal slices, histone H-1 as substrate. The format is cell-based, mouse. On the procedure:
as §1
For Cdk5 immunoprecipitation, striatal tissue slices (approximately 150 μg total protein) were lysed using a Dounce homogenizer and 1 ml of lysis buffer (150 mM NaCl, 20 mM Tris-HCl (pH 7.4), 1 mM EDTA, 0.5% NP-40, 5 mM NaF, 5 mM Na3PO4 and protease inhibitors). Lysates were centrifuged at 10,000 g for 10 minutes at 4° C. Supernatants were pre-cleared by adding rabbit IgG-conjugated agarose for 40 minutes at 4° C. Ten μl of Cdk5 antibody conjugated to agarose were added and samples were incubated for 1 hour at 4° C. with mixing. Agarose pellets were collected and washed three times with 1 ml of lysis buffer and two times with kinase assay buffer (50 mM Hepes (pH 7.5), 10 mM MgCl2, 1 mM DTT). Cdk5 kinase assays were performed in a 30-μl reaction mixtures with 2 μg Histone H-1, 500 μM ATP and 5 μCi of γ-^32P-ATP. Samples were incubated at 30° C. for 10 minutes, reactions were stopped by addition of SDS-sample buffer, and samples were boiled for 5 minutes. Samples were separated by SDS-PAGE and analyzed as disclosed above for CKI assays. Data were analyzed by Student's t-test in Microsoft Excel software as indicated, with significance defined as p<0.05.
CK1 assays were performed in a 30 μl assay volume with 2 μg of purified DARPP-32, 500 μM ATP and 5 μCi γ-^32P-ATP. Reactions were started by addition of the ATP. Samples were incubated at 30° C. for 10 min and reactions were stopped by addition of SDS-sample buffer and boiled for 5 min. Samples were separated by SDS-PAGE (12% polyacrylamide). SDS-PAGE gels were dried and exposed to Kodak film for autoradiography. Results were quantified using a Molecular Dynamics PHOSPHORIMAGER™. Immunoprecipitation and assay of Cdk5 were performed as disclosed (20).

“Also recorded” adds a separate entry of the source.

In the case of `N[C@H](C(=O)O)c1cc(O)cc(O)c1` [DHPG, (S)-3,5-Dihydroxyphenylglycine], the “increase in phosphorylation of Ser137” value in test [1] (DHPG 100 μM, group I mGluR activation) is recorded as 2–3 fold. Also, the “time of peak level of phosphorylation of Ser137” value in test [1] (DHPG 100 μM, back to basal level by 5 minutes) was 2 min. Besides, the “effect on phosphorylation of Ser137 in DARPP-32” value in test [1] (slices treated with drug alone: DHPG 100 μM, ionomycin 2 μM) is “rapid but transient increase”. Further, in the test with Cdk5 (DHPG treatment of slices), the “effect on Cdk5 kinase activity” value is “rapid but transient increase; also recorded: increased”. In addition, the “increase in Cdk5 activity” value with Cdk5 (DHPG, after 2 minutes, back to basal level after 5 minutes) is recorded as “approximately 4 fold”.
In the case of `NCCNS(=O)(=O)c1ccc(Cl)c2ccncc12` [CKI-7], the “effect on basal or DHPG-stimulated DARPP-32 phosphorylation at Ser137” value in test [1] (50 μM CKI-7, 30 min before DHPG 2 min) was “little effect”. Further, the “effect on basal and DHPG-stimulated DARPP-32 phosphorylation at Ser137” value in test [1] (CKI-7 100 to 300 μM, 30 min before DHPG 2 min) was “dose-dependent decreases”. Besides, in the test on Cdk5 (CKI-7 dose-dependent, U73122 10 μM, BAPTA/AM 20 μM, cyclosporin A 5 μM), the “effect of pretreatment on the effect of DHPG on Cdk5 kinase activity” value was “attenuated”.
